Experiments:
[1] = biological target: T1, Recombinant STAT6 protein (STAT6(W123-T658)) (Homo sapiens, UniProt P42226); experiment: STAT6 Fluorescence Polarization (FP) Assay; type: binding; conditions: STAT6(W123-T658) 250 nM, probe 5-FAM-ApYKPFQDLI-NH2 2 nM, 45-minute incubation
T1 construct: STAT6(W123-T658)
T1 sequence (P42226 123-658): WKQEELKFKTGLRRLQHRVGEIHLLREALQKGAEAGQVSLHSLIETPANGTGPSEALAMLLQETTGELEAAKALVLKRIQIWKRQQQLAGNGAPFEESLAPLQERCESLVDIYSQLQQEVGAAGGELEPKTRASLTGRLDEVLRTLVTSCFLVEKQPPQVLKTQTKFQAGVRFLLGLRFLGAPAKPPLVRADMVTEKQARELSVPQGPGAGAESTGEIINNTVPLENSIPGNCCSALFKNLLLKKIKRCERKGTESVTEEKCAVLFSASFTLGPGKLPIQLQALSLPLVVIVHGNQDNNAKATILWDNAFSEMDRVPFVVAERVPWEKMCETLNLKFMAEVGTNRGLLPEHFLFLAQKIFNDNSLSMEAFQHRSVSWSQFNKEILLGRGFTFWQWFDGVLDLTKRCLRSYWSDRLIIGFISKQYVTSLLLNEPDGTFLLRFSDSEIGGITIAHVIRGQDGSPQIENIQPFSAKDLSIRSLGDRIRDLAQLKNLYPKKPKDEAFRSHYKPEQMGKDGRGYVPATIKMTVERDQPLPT
Description: STAT6 Fluorescence Polarization (FP) Assay
An FP assay was developed to determine IC50 values for test substances. Recombinant STAT6 protein (STAT6(W123-T658)) at 250 nM was combined with a fluorescently labeled, phosphotyrosine peptide probe (5-FAM-ApYKPFQDLI-NH2) at 2 nM in FP buffer (10 mM HEPES pH 7.4, 50 mM NaCl, 1 mM EDTA, 0.05% Tween 20, 2 mM DTT). 50 μL of STAT6-probe mixture was added to serial diluted compounds in black, 96-well plates (Greiner BioOne 655076) to a final concentration of 1% DMSO. Reaction components were mixed, and FP was measured after 45-minute incubation at room temperature using a Tecan Spark multimode plate reader. FP signal (mP) was plotted against the log concentration of the test substances and IC50 values were calculated by nonlinear regression analysis using GraphPad Prism software. For STAT6 FP assay, A=≤300 nM; B=>300-3000 nM; C=>3-30 μM; and D=>30 μM.

[2] = biological target: T2, Recombinant STAT3 protein (STAT3(G127-I722)) (Homo sapiens, UniProt P40763); experiment: STAT3 Fluorescence Polarization (FP) Assay; type: binding; conditions: STAT3(G127-I722) 25 nM, probe 5-FAM-GpYLPQTV-NH2 2 nM, 45-minute incubation
T2 construct: STAT3(G127-I722)
T2 sequence (P40763 127-722, species assumed): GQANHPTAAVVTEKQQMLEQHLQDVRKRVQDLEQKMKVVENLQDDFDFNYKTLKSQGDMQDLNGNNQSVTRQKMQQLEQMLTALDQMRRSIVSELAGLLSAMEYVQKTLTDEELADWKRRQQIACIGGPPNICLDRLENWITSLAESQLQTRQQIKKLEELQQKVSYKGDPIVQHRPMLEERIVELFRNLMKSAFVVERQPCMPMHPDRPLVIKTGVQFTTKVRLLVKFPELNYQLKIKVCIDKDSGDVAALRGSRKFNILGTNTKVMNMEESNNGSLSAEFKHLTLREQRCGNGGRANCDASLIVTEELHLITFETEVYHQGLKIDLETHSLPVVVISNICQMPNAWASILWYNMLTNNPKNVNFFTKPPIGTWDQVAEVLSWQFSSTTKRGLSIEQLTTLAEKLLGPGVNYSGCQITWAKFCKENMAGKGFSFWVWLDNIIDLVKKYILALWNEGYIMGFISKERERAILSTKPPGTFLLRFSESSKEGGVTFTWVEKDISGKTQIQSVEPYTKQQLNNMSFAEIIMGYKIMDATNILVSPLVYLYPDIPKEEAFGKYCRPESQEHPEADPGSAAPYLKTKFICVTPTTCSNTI
Description: STAT3 Fluorescence Polarization (FP) Assay
An FP assay was developed to determine IC50 values for test substances. Recombinant STAT3 protein (STAT3(G127-I722)) at 25 nM was combined with a fluorescently labeled, phosphotyrosine peptide probe (5-FAM-GpYLPQTV-NH2) at 2 nM in FP buffer (10 mM HEPES pH 7.4, 50 mM NaCl, 1 mM EDTA, 0.05% Tween 20, 2 mM DTT). 50 μL of STAT3-probe mixture was added to serial diluted compounds in black, 96-well plates (Greiner BioOne 655076) to a final concentration of 1% DMSO. Reaction components were mixed, and FP was measured after 45-minute incubation at room temperature using a Tecan Spark multimode plate reader. FP signal (mP) was plotted against the log concentration of the test substances and IC50 values were calculated by nonlinear regression analysis using GraphPad Prism software. For STAT3 FP assay, A=≤100 nM; B=>100-1000 nM; C=>1-10 μM; and D=>10 μM.

| IC50 [1] | IC50 [2] | Compound |
| --- | --- | --- |
| 3 to 30 µM | < 0.1 µM | O=C(N[C@H]1C[C@@H]2C[C@@H]2C[C@H]2CC[C@@H](C(=O)N3CC(c4cnccc4N4CCOCC4)C3)N2C1=O)c1cc2cc([C@H](F)P(=O)(O)O)ccc2s1 (single isomer, unassigned) [Example 406] |
| 3 to 30 µM | < 0.1 µM | CN(C)c1ccncc1C1CN(C(=O)[C@@H]2CC[C@@H]3C[C@H]4C[C@H]4C[C@H](NC(=O)c4cc5cc([C@H](F)P(=O)(O)O)ccc5s4)C(=O)N32)C1 (single isomer, unassigned) [Example 407] |
| 3 to 30 µM | < 0.1 µM | CN(C)c1ccncc1C1CN(C(=O)[C@@H]2CC[C@@H]3C[C@H]4C[C@H]4C[C@H](NC(=O)c4cc5cc([C@@H](F)P(=O)(O)O)ccc5s4)C(=O)N32)C1 (single isomer, unassigned) [Example 408] |
| 3 to 30 µM | 1 to 10 µM | COC[C@@H]1CCN1c1ccncc1C1CN(C(=O)[C@@H]2CC[C@@H]3C[C@H]4C[C@H]4C[C@H](NC(=O)c4cc5cc([C@@H](F)P(=O)(O)O)ccc5s4)C(=O)N32)C1 (single isomer, unassigned) [Example 410] |
| 0.3 to 3 µM | 0.1 to 1 µM | COC[C@@H]1CCN1c1ccncc1C1CN(C(=O)[C@@H]2CC[C@@H]3C[C@H]4C[C@H]4C[C@H](NC(=O)c4cc5cc([C@H](F)P(=O)(O)O)ccc5s4)C(=O)N32)C1 (single isomer, unassigned) [Example 411] |
| ≤ 0.3 µM | 1 to 10 µM | N#C[C@@H]1[C@@H](c2cccnc2)CN(C(=O)[C@@H]2CC[C@@H]3C[C@H]4C[C@H]4C[C@H](NC(=O)c4cc5cc([C@H](F)P(=O)(O)O)ccc5s4)C(=O)N32)C12CC2 (single isomer, unassigned) [Example 429] |
| 0.3 to 3 µM | < 0.1 µM | CN(C)c1ccncc1[C@@H]1CN(C(=O)[C@@H]2CC[C@@H]3C[C@H]4C[C@H]4C[C@H](NC(=O)c4cc5cc([C@H](F)P(=O)(O)O)ccc5s4)C(=O)N32)C2(CC2)C1 (single isomer, unassigned) [Example 433] |
| ≤ 0.3 µM | < 0.1 µM | CN(C)c1ccncc1[C@H]1CN(C(=O)[C@@H]2CC[C@@H]3C[C@H]4C[C@H]4C[C@H](NC(=O)c4cc5cc([C@H](F)P(=O)(O)O)ccc5s4)C(=O)N32)C2(CC2)C1 (single isomer, unassigned) [Example 435] |
| 3 to 30 µM | < 0.1 µM | CC12CC1C[C@H](NC(=O)c1cc3cc(C(F)(F)P(=O)(O)O)ccc3s1)C(=O)N1[C@H](CC[C@H]1C(=O)N1CC(c3cccnc3)C1)C2 (stereo in doubt) [Example 231, (difluoro(2-(((3S,6S,7aR,8aS,9aR)-8a-methyl-5-oxo-3-(3-(pyridin-3-yl)azetidine-1-carbonyl)decahydro-1H-cyclopropa[d]pyrrolo[1,2-a]azocin-6-yl)carbamoyl)benzo[b]thiophen-5-yl)methyl)phosphonic acid] |
| 3 to 30 µM | < 0.1 µM | COC1(c2nccn2C)CN(C(=O)[C@@H]2CC[C@@H]3CC4(C)CC4C[C@H](NC(=O)c4cc5cc(C(F)(F)P(=O)(O)O)ccc5s4)C(=O)N32)C1 (stereo in doubt) [Example 239, (difluoro(2-(((3S,6S,7aR,8aS,9aR)-3-(3-methoxy-3-(1-methyl-1H-imidazol-2-yl)azetidine-1-carbonyl)-8a-methyl-5-oxodecahydro-1H-cyclopropa[d]pyrrolo[1,2-a]azocin-6-yl)carbamoyl)benzo[b]thiophen-5-yl)methyl)phosphonic acid] |
| 3 to 30 µM | 0.1 to 1 µM | CC(=O)N1CCC2C1CN2C(=O)[C@@H]1CC[C@@H]2C[C@H]3C[C@H]3C[C@H](NC(=O)c3cc4cc(C(F)P(=O)(O)O)ccc4s3)C(=O)N21 (stereo in doubt) [Example 289, ((2-(((3S,6S,7aS,8aR,9aR)-3-((1S,5S)-2-acetyl-2,6-diazabicyclo[3.2.0]heptane-6-carbonyl)-5-oxodecahydro-1H-cyclopropa[d]pyrrolo[1,2-a]azocin-6-yl)carbamoyl)benzo[b]thiophen-5-yl)fluoromethyl)phosphonic acid] |
| 3 to 30 µM | < 0.1 µM | C[C@H]1CN(C(=O)C2CN(C(=O)[C@@H]3CC[C@@H]4C[C@H]5C[C@H]5C[C@H](NC(=O)c5cc6cc(C(F)(F)P(=O)(O)O)ccc6s5)C(=O)N43)C2)CCO1 [Compound 12, (difluoro(2-(((3S,6S,7aS,8aR,9aR)-3-(3-((S)-2-methylmorpholine-4-carbonyl)azetidine-1-carbonyl)-5-oxodecahydro-1H-cyclopropa[d]pyrrolo[1,2-a]azocin-6-yl)carbamoyl)benzo[b]thiophen-5-yl)methyl)phosphonic acid] |
| 3 to 30 µM | < 0.1 µM | C[C@@H]1COCCN1C(=O)C1CN(C(=O)[C@@H]2CC[C@@H]3C[C@H]4C[C@H]4C[C@H](NC(=O)c4cc5cc(C(F)(F)P(=O)(O)O)ccc5s4)C(=O)N32)C1 [Compound 13, (difluoro(2-(((3S,6S,7aS,8aR,9aR)-3-(3-((R)-3-methylmorpholine-4-carbonyl)azetidine-1-carbonyl)5-oxodecahydro-1H-cyclopropa[d]pyrrolo[1,2-a]azocin-6-yl)carbamoyl)benzo[b]thiophen-5-yl)methyl)phosphonic acid] |
| 3 to 30 µM | < 0.1 µM | C[C@H]1COCCN1C(=O)C1CN(C(=O)[C@@H]2CC[C@@H]3C[C@H]4C[C@H]4C[C@H](NC(=O)c4cc5cc(C(F)(F)P(=O)(O)O)ccc5s4)C(=O)N32)C1 [Compound 14, (difluoro(2-(((3S,6S,7aS,8aR,9aR)-3-(3-((S)-3-methylmorpholine-4-carbonyl)azetidine-1-carbonyl)-5-oxodecahydro-1H-cyclopropa[d]pyrrolo[1,2-a]azocin-6-yl)carbamoyl)benzo[b]thiophen-5-yl)methyl)phosphonic acid] |
| 3 to 30 µM | < 0.1 µM | O=C(N[C@H]1C[C@@H]2C[C@@H]2C[C@H]2CC[C@@H](C(=O)N3CC(C(=O)N4CCOCC4)C3)N2C1=O)c1cc2cc(C(F)(F)P(=O)(O)O)ccc2s1 [Compound 15, (difluoro(2-(((3S,6S,7aS,8aR,9aR)-3-(3-(morpholine-4-carbonyl)azetidine-1-carbonyl)-5-oxodecahydro-1H-cyclopropa[d]pyrrolo[1,2-a]azocin-6-yl)carbamoyl)benzo[b]thiophen-5-yl)methyl)phosphonic acid] |
| 3 to 30 µM | 0.1 to 1 µM | O=C(N[C@H]1C[C@@H]2C[C@@H]2C[C@H]2CC[C@@H](C(=O)N3CC[C@@H](N4CCOCC4)C3)N2C1=O)c1cc2cc(C(F)(F)P(=O)(O)O)ccc2s1 [Compound 16, (difluoro(2-(((3S,6S,7aS,8aR,9aR)-3-((R)-3-morpholinopyrrolidine-1-carbonyl)-5-oxodecahydro-1H-cyclopropa[d]pyrrolo[1,2-a]azocin-6-yl)carbamoyl)benzo[b]thiophen-5-yl)methyl)phosphonic acid] |
| 3 to 30 µM | 0.1 to 1 µM | O=C(N[C@H]1C[C@@H]2C[C@@H]2C[C@H]2CC[C@@H](C(=O)N3CC[C@H](N4CCOCC4)C3)N2C1=O)c1cc2cc(C(F)(F)P(=O)(O)O)ccc2s1 [Compound 17, (difluoro(2-(((3S,6S,7aS,8aR,9aR)-3-((S)-3-morpholinopyrrolidine-1-carbonyl)-5-oxodecahydro-1H-cyclopropa[d]pyrrolo[1,2-a]azocin-6-yl)carbamoyl)benzo[b]thiophen-5-yl)methyl)phosphonic acid] |

Reference: US20250215030A1, “STAT MODULATORS AND USES THEREOF” (Recludix Pharma, Inc., priority 2022, published 2025)
